We go through seven compounds from patent publication US10981927B2, “Bioactive compounds” (priority 2014, dated 2021).

Where two headings read alike, the source gives them in different places. Where only a bound is given, the exact number is not on record here.

The subject of data set [1] is mice. Conditions: cited from earlier work; for LD50 reported for other cyclic imines: intraperitoneal injection.
Data set [2] has as its system Jurkat T-lymphoma cells. As to the kind of experiment: viability assay (propidium iodide, flow cytometry), Jurkat cells. As to conditions: for cytotoxicity: Jurkat cells, 48 hours, over the concentration range tested; for CC50: Homo sapiens, Jurkat, 48 h. The protocol: (§1) Jurkat T-lymphocyte-like, pro-myelocytic HL60 and erythroleukemic K562 cell lines were obtained from the American Type Culture Collection (ATCC, Rockville, Md., USA). The B9 Jurkat cell clone that overexpresses Bcl-2 was previously generated and characterised (Thomson et al (2005)). Jurkat and HL60 cells were grown in culture using RPMI 1640 media supplemented with 10% FBS, 100 units/mL penicillin and 100 μg/mL streptomycin at 37° C. in a humidified atmosphere with 5% CO2. K562 cells were grown in culture using Iscoves DMEM media supplemented with 10% FBS, 100 units/mL penicillin and 100 μg/mL streptomycin at 37° C. in a humidified atmosphere with 5% CO2.
(§2) All cells were treated at 1×10^6 per mL in media. Fresh stock solutions of ABT-737 were prepared in sterile DMSO and stored at −20° C. Stock solutions of 50 mM were then further diluted with DMSO and added to cells, maintaining the final concentration of DMSO constant at 0.1%. Jurkat and K562 cells were treated with 200 nM ABT-737, HL60 cells were treated with 50 nM ABT-737. Stocks of the compound I, pinnatoxin F and pinnatoxin G (1000×) were prepared in sterile DMSO and stored at −20° C. Concentrations were calculated using molecular weights of 401 (the compound I), 764 (pinnatoxin F) and 693 (pinnatoxin G). The final concentration of DMSO was kept constant at 0.1%.
(§3) Integrity of cell plasma membranes was assessed using propidium iodide (PI) staining at 48 hours. Cells (0.2×10^6) were loaded with 1 μg of propidium iodide (1 μL of a 1 mg/mL stock in water per 200 μL of cells). PI uptake by non-viable (stained, PI positive) cells was measured using the FC500 MPL Flow Cytometry system (Beckman Coulter Inc.). Viable cells were defined as PI-negative cells expressed as a percentage of the 10,000 cells analysed.

For data set [3], the system named is P388 cells. As to the kind of experiment: in vitro dose-response (toxicity) against P388 cells. In kind it is cell-based. The procedure: (§4) FIG. 2. Dose response curves for the compound I designated portimine against P388 (▴) and Vero (▪) cells over 72 hours exposure.
(§5) No effects were recorded at 500 or 700 μg/kg. […] Furthermore, the onset of symptoms of toxicity was much slower with the compound I than with other cyclic imines. Structure-activity relationships among cyclic imines, both in terms of acute toxicity and effects on neuromuscular transmission, point to the importance of the imine moiety in the mode of action (Munday (2008)). […] This toxicity profile prompted further investigations into the use of the compound I as an anticancer therapeutic or synergist for Bcl-2 antagonists such as the compound designated ABT-737: […]

Data set [4] in a line: acute toxicity in mice by intraperitoneal injection. In kind it is in vivo. As to conditions: mouse, in vivo, ip, intraperitoneal injection. The procedure:
as §5

Data set [5] has as its system mice. The description is as above. In kind it is in vivo. The protocol: as §5
For data set [6], the system named is Vero cells. As to the kind of experiment: in vitro dose-response (toxicity) against Vero cells. In kind it is cell-based. The procedure:
as §4, §5

Data set [7] deals with caspase-3 in P388 cells. As to the kind of experiment: activation of caspase-3 in P388 cells. Format: cell-based. Conditions: after 12 hours of exposure. The protocol:
as §5

The subject of data set [8] is Bcl-2 overexpressing Jurkat cells (B9 clone). Kind of data set: cells. The protocol: as §1, §2, §3
The subject of data set [9] is HL60 cells. Kind of data set: viability assay (propidium iodide, flow cytometry), HL60 cells. Conditions: for CC50: Homo sapiens, HL-60, 48 h. The procedure: as §1, §2, §3
The test system of data set [10] is K562 cells. Kind of data set: viability assay (propidium iodide, flow cytometry), K562 cells. The protocol: as §1
All cells were treated at 1×10^6 per mL in media. Fresh stock solutions of ABT-737 were prepared in sterile DMSO and stored at −20° C. Stock solutions of 50 mM were then further diluted with DMSO and added to cells, maintaining the final concentration of DMSO constant at 0.1%. […] Concentrations were calculated using molecular weights of 401 (the compound I), 764 (pinnatoxin F) and 693 (pinnatoxin G). […]
Integrity of cell plasma membranes was assessed using propidium iodide (PI) staining at 48 hours. […] PI uptake by non-viable (stained, PI positive) cells was measured using the FC500 MPL Flow Cytometry system (Beckman Coulter Inc.). Viable cells were defined as PI-negative cells expressed as a percentage of the 10,000 cells analysed.

The subject of data set [11] is Caspase-3-like DEVDase activity in wild-type Jurkat cells. As to the kind of experiment: caspase assay (DEVD-AMC), wild-type Jurkat cells. In kind it is cell-based, human. The protocol:
(§6) Six hours after treatment 1×10^6 cells were harvested and stored as cell pellets at −80° C. Cell pellets were resuspended in 15 μL PBS, transferred to a 96-well fluorescent plate, and 95 μL buffer (100 mM HEPES, 10% sucrose, 5 mM DTT, 0.1% NP-40 and 0.1% CHAPS at pH 7.25) containing 50 μM DEVD-AMC. The rate of release of fluorescent AMC was monitored at 37° C. (λex 390 nm, λem 460 nm). Data are expressed as a fold increase in activity over vehicle-treated cells incubated for the same time.

Data set [12] concerns Caspase-3-like DEVDase activity in Bcl-2 overexpressing Jurkat cells. As to the kind of experiment: caspase assay (DEVD-AMC), Bcl-2 overexpressing Jurkat cells. Format: cell-based, human. The procedure: as §6
For data set [13], the system named is Jurkat cells. Kind of data set: phosphatidylserine assay (Annexin V-FITC / propidium iodide), Jurkat cells. Format: cell-based, human. The procedure:
Phosphatidylserine (PS) becomes exposed on the outer leaflet of the plasma membrane during apoptosis. PS binds strongly with Annexin-V, which when labelled with a fluorescent probe such as fluorescein isothiocyanate (FITC), allows the detection of cells undergoing apoptosis. Treated cells (0.1×10^6) were harvested and centrifuged at 10,000×g for 1 minute. The supernatant was removed and cells were resuspended in 100 μL Annexin-V Binding Buffer (10 mM HEPES pH 7.4, 140 mM NaCl, 2.5 mM CaCl2). Cells were stained by adding 1 μL Annexin-V FITC conjugate, and then incubated in the dark at room temperature for 15 minutes. […] Viable cells (PI negative) that stained with Annexin-V FITC were termed PS positive.

As for `C=C1CCCC2=NCC(C)C(C)CC23CCC(C2C=C(C)C(=O)O2)=C(C)C3/C=C(/C)C(O)CC2CCC3(CCC4(OC(CCC4(C)O)C1)O3)O2` (centres unmarked) [desmethyl spirolide C], the “LD50 reported for other cyclic imines” value in [1] was 0.0069 mg/kg.

With `C=CC1=C[C@@H]2[C@@H]3O[C@]4(C[C@H]5CCC[C@@]6(CC[C@@]7(O[C@@H](CC[C@@]7(C)O)CC(=C)CCCC7=NC[C@H](C)[C@@H](C)C[C@@]72CC1)O6)O5)C[C@@H](C)[C@@H](O)[C@H]3O4` [pinnatoxin G, reference compound], in [2], the cytotoxicity entry was “little cytotoxicity”.

For `C=C1CCCC2=NC[C@H](C)[C@@H](C)C[C@@]23CCC([C@@H]2CCC(=O)O2)=C[C@@H]3[C@@H]2O[C@@]3(C[C@@H](C)C[C@H]2O3)C[C@@H]2O[C@]3(CC[C@@]4(O[C@@H](CC[C@@]4(C)O)C1)O3)C[C@H](C)[C@@H]2O` [pinnatoxin F, reference compound], in data set [3] (P388 cells in vitro), the EC50 is above 1000 nM. Also, the cytotoxicity entry in data set [2] was “little cytotoxicity”. For the same compound, the “LD50 reported for other cyclic imines” value in data set [1] is 0.016 mg/kg.

On to `C=CC1=C[C@@H]2[C@@H]3O[C@]4(CC[C@H](O4)[C@@H](C)C[C@@H](O)C3=O)C[C@H](O)C3=NCC[C@@]32CC1` (relative stereo) [compound I, (4R,6S,9R,10R,12S,14R,14aR,18aS)-rel-16-ethenyl-1,2,4,5,7,8,9,10,11,12, 14,14a,17,18-tetradecahydro-4,12-dihydroxy-10-methyl-)13H-6,9:6,14-diepoxybenzo[2,3]cyclotetradeca[1,2-b]pyrrol-13-one], for which the LD50 in data set [4] stood at 1.57 mg/kg. In [5] (compared with other cyclic imines), the “onset of symptoms of toxicity” value is “much slower”. Moreover, the “effects recorded at sublethal doses” value in [5] (intraperitoneal injection, 500 or 700 μg/kg) was “No effects”. Besides, the EC50 in data set [3] (Mus musculus, P388 cells, 72 hours exposure) worked out at 2.7 nM; in data set [6] (Chlorocebus sabaeus, 72 hours exposure) it was 3 nM. Moreover, the cells killed is reported as above 90% in data set [3] (P388 cells, 10 nM, 72 hours of exposure) and above 90% in data set [6] (10 nM, 72 hours of exposure). Besides, in data set [7], the “activation of caspase-3” value is on record as “observed”. Also, the CC50 in [2] (read-out: LC50, Jurkat cells, 48 hours, without ABT-737) amounted to 6 nM; in [2] (read-out: LC50, wild-type Jurkat cells, 48 hours, with 200 nM ABT-737), 1.4 nM; in data set [8] (Homo sapiens, Jurkat, 48 h, read-out: LC50), 2.4 nM; in data set [9] (read-out: LC50, HL60 cells, 48 h, with 50 nM ABT-737) it was 0.8 nM; in [9] (read-out: LC50, HL60 cells, 48 h, without ABT-737), 34 nM; in data set [10] (Homo sapiens, K562, 48 h, read-out: LC50) it was 6.7 nM. Besides, the cell death result in data set [8] (Jurkat cells overexpressing Bcl-2, 48 hours, without ABT-737, up to highest concentrations tested) is listed as “unable to trigger cell death”. Further, the “sensitivity of K562 cells” value in data set [10] (K562 cells, 48 h, without ABT-737) was “relatively resistant”. In addition, in data set [11] (Jurkat cells, 50 nM portimine), the “caspase activity time course” value is listed as “steady increase in caspase activity over the 5 hours”. Also, the caspase activation entry in data set [11] (wild-type Jurkat cells, increasing concentrations, 6 hours) is on record as “dose-dependent increase”. The “increase in caspase activity” value in data set [12] (50 nM portimine in combination with 200 nM ABT-737) was 60 fold. For the same compound, in data set [12] (any concentration, 6 hours), the caspase activity entry is recorded as “no caspase activity”. Also, the “time at which annexin V positive cells are evident” value in data set [13] (50 nM portimine) was 2 h. Also, the “cells annexin V positive” value in [13] (6 hours) was “up to 50%”. Further, the necrosis result in data set [13] (annexin V / propidium iodide staining) is “no indication of significant necrosis”.

For the compound `CN(C)CC[C@H](CSc1ccccc1)Nc1ccc(S(=O)(=O)NC(=O)c2ccc(N3CCN(Cc4ccccc4-c4ccc(Cl)cc4)CC3)cc2)cc1[N+](=O)[O-]` [ABT-737, 4-[4-[(4′-chloro[1,1′-biphenyl]-2-yl)methyl]-1-piperazinyl]-N-[[4-[[(1R)-3-(dimethylamino)-1-[(phenylthio)methyl]propyl]amino]-3-nitrophenyl]sulfonyl]-benzamide, reference compound], the direct cytotoxicity entry in data set [8] is given as “not directly cytotoxic”. Moreover, the “sensitivity of HL60 cells” value in [9] (HL60 cells, ABT-737 alone) is recorded as “particularly sensitive”.

Regarding `C=C1CCCC2=NC[C@H](C)[C@@H](C)C[C@@]23CCC([C@@H]2C=C(C)C(=O)O2)=C(C)[C@@H]3/C=C(\C)[C@@H](O)C[C@H]2O[C@@]3(C[C@H]2C)O[C@@H](CC[C@@]3(C)O)C1` [spirolide H], the “toxicity to mice relative to the compound I” value in data set [1] (Roach et al (2009)) is listed as “even less toxic to mice than the compound I”.

Turning to `CC1=C[C@@H](C2=C(C)[C@@H]3/C=C(\C)[C@@H](O)CC[C@@H]4C[C@@H](C)[C@@H](O4)/C(C)=C/CCC4=NCCC[C@@]43CC2)OC1=O` [gymnodimine], the “LD50 reported for other cyclic imines” value in data set [1] was 0.096 mg/kg.
